Source: patent publication US20100285959A1, “HERBICIDAL MIXTURES” (priority 2006, published 2010)
Where two headings read alike, the source gives them in different places. Blank lines part the entries; values can stand above or below the compound they belong to.

Columns and labels:
[1] = test system: henbit deadnettle (LAMAM); test: Test 9 field trial, emerged weeds before corn planting; assay type: in vivo, Lamium amplexicaule; conditions: g a.i./ha: Cpd 2 100, Glyphosate 1540, Paraquat 1150
Experimental: (§1) Corn seeds (hybrid ‘Pioneer 34M91 RR’) were planted in mid spring season, about 3.8 cm deep in a silty clay loam soil having a pH of 6.7. Plots were 9.1 m long by 3.0 m. The field was managed using no-till practices. […] Compound 2 and paraquat treatments, alone and in combination, also included a surfactant. Glyphosate, alone and with Compound 2, included ammonium sulfate in the treatment mixture. […] The effects on the weeds in the treated plots and untreated control plots were recorded 7, 14, 23, 30 and 57 days after application. Most of the weed species could not be evaluated at every timing. Corn response was only evaluated 57 days after application. […] Results are the means of the three replicates.

shepherd's purse (CAPBP) = test: as above; assay type: in vivo, Capsella bursa-pastoris; conditions: g a.i./ha: Cpd 2 100, Glyphosate 1540, Paraquat 1150
Experimental: as §1

common chickweed (STEME) [2] = test: as above; assay type: in vivo, Stellaria media; conditions: g a.i./ha: Cpd 2 100, Glyphosate 1540, Paraquat 1150
Experimental: as §1

bushy wallflower (ERYRE) = test: as above; assay type: in vivo, Erysimum repandum; conditions: g a.i./ha: Cpd 2 100, Glyphosate 1540, Paraquat 1150
Experimental: as §1

common chickweed (STEME) [3] = test: Test 3 field trial, emerged weeds before corn planting; assay type: in vivo, Stellaria media; conditions: Cpd 2 100, glyphosate 1540, paraquat 1150 g a.i./ha, alone or combined
From the text: (§2) Corn seeds (hybrid ‘Pioneer 33J56’) were planted in early spring season, 3.8 cm deep in a silt loam soil having 2.4% organic matter and a pH of 6. Plots were 6.1 m long by 2.7 m wide with rows spaced 91.4 cm apart. The field was managed using no-till practices. […] Compound 2 and paraquat treatments, alone and in combination, also included a surfactant. Glyphosate, alone and with Compound 2, included ammonium sulfate in the treatment mixture. […] The effects on the weeds in the treated plots and untreated control plots were recorded 30, 42, 46 and 68 days after application. Most of the weed species could not be evaluated at every timing. Corn response was not evaluated because the growth was highly variable depending on the efficacy of the weed control treatments. […] Results are the means of the three replicates.

curly dock (RUMCR) = test: as above; assay type: in vivo, Rumex crispus; conditions: Cpd 2 100, glyphosate 1540, paraquat 1150 g a.i./ha, alone or combined
From the text: as §2

Canada horseweed (ERICA) = test: Test 9 field trial, emerged weeds before corn planting; assay type: in vivo, Erigeron canadensis; conditions: g a.i./ha: Cpd 2 100, Glyphosate 1540, Paraquat 1150
Experimental: as §1

red deadnettle (LAMPU) [4] = test: Test 3 field trial, emerged weeds before corn planting; assay type: in vivo, Lamium purpureum; conditions: Cpd 2 100, glyphosate 1540, paraquat 1150 g a.i./ha, alone or combined
From the text: as §2

[5] = test system: common lambsquarters (CHEAL); test: Test 9 field trial, emerged weeds before corn planting; assay type: in vivo, Chenopodium album; conditions: 57 DAA; g a.i./ha: Cpd 2 100, Glyphosate 1540, Paraquat 1150
Experimental: as §1

[6] = test system: smallflower buttercup (RANAB); test: as above; assay type: in vivo, Ranunculus abortivus; conditions: g a.i./ha: Cpd 2 100, Glyphosate 1540, Paraquat 1150
Experimental: as §1

common dandelion (TAROF) = test: as above; assay type: in vivo, Taraxacum officinale; conditions: g a.i./ha: Cpd 2 100, Glyphosate 1540, Paraquat 1150
Experimental: as §1

giant foxtail (SETFA) = test: Test 3 field trial, emerged weeds before corn planting; assay type: in vivo, Setaria faberi; conditions: 68 DAA; Cpd 2 100, glyphosate 1540, paraquat 1150 g a.i./ha, alone or combined
From the text: as §2

red deadnettle (LAMPU) [7] = test: Test 9 field trial, emerged weeds before corn planting; assay type: in vivo, Lamium purpureum; conditions: g a.i./ha: Cpd 2 100, Glyphosate 1540, Paraquat 1150
Experimental: as §1

prickly lettuce (LACSE) = test: as above; assay type: in vivo, Lactuca serriola; conditions: g a.i./ha: Cpd 2 100, Glyphosate 1540, Paraquat 1150
Experimental: as §1

giant ragweed (AMBTR) = test: as above; assay type: in vivo, Ambrosia trifida; conditions: g a.i./ha: Cpd 2 100, Glyphosate 1540, Paraquat 1150
Experimental: as §1

[8] = test system: Virginia pepperweed (LEPVI); test: Test 3 field trial, emerged weeds before corn planting; assay type: in vivo, Lepidium virginicum; conditions: Cpd 2 100, glyphosate 1540, paraquat 1150 g a.i./ha, alone or combined
From the text: as §2

corn (ZEAMD) [9] = test: Test 9 field trial, emerged weeds before corn planting; assay type: in vivo, Zea mays ssp. indentata; conditions: 57 DAA; g a.i./ha: Cpd 2 100, Glyphosate 1540, Paraquat 1150
Experimental: as §1

[10] = test system: common lambsquarters (CHEAL); test: Test 3 field trial, emerged weeds before corn planting; assay type: in vivo, Chenopodium album; conditions: 68 DAA; Cpd 2 100, glyphosate 1540, paraquat 1150 g a.i./ha, alone or combined
From the text: as §2

wheat (TRZAW) = test system: wheat (TRZAW); parameters: species or system Triticum aestivum; conditions: in vivo
Experimental: (§3) A greenhouse test was conducted to evaluate the effects of Compounds 1 and 2, applied preemergence, on the plant species corn (ZEAMD, Zea mays ssp. indentata) and wheat (TRZAW, Triticum aestivum L.) grown from seed treated with and without naphthalic anhydride. Naphthalic anhydride was applied at a rate of 1% wt/wt basis to corn and wheat seed. Seed treatments were made as follows for evaluations of the chemical materials employed. One-hundred grams of each crop seed were placed in a separate self-closing plastic bag to which 1 gram of the chemical material was added. The bag containing the seed was tightly closed and gently agitated thereby allowing the seed to slowly come in contact with the chemical material to achieve maximal distribution on the seed surface, arriving at a uniform coverage. Treatment rate comparisons between spray application and seed treatment materials were made on the calculated area rate of naphthalic anhydride in grams active ingredient per hectare for a given crop. These rates were calculated based on a typical seeding rate per hectare used for agronomic production of a given crop. For wheat, a typical average seeding rate is 200 wheat seeds per square meter which weigh 6.8 g. For corn, a typical average seeding rate is 7.5 corn seeds per square meter which weigh 2.0 g. […] Corn treatments were replicated three times. Wheat treatments were replicated two times. […]

corn (ZEAMD) [11] = test system: corn (ZEAMD); parameters: species or system Zea mays ssp. indentata; conditions: in vivo
Experimental: as §3

mixed hardwoods (MXDSP) = test: Test 13 field trial, postemergence, brush weeds; assay type: in vivo, Nyssa sylvatica, Acer rubrum, Liquidambar styraciflua; conditions: 56 DAA; g a.i./ha: Cpd 2 250; Fosamine-ammonium 6700
From the text: (§4) Plots were established in non-crop land and were 6.1 m long by 3.0 m wide. […] Treatments were applied postemergence to the brush weeds using a backpack sprayer delivering a spray volume of 468 L/ha using a pressure of 241 kPa. […] All treatments also included a surfactant. […] Results are the means of the three replicates.

oak species (QUESS) = test: Test 13 field trial, postemergence, brush weeds; assay type: in vivo, Quercus L. spp.; conditions: 56 DAA; g a.i./ha: Cpd 2 250; Fosamine-ammonium 6700
From the text: as §4

SMILES: C[n+]1ccc(-c2cc[n+](C)cc2)cc1 [Paraquat]
LAMAM Obs ([1]; 7 DAA): 93%
LAMAM Obs ([1]; 14 DAA): 84%
LAMAM Obs ([1]; 23 DAA): 85%
LAMAM Obs ([1]; 30 DAA): 73%
LAMAM Obs ([1]; 57 DAA): 81%
CAPBP Obs (shepherd's purse (CAPBP); 7 DAA): 89%
CAPBP Obs (shepherd's purse (CAPBP); 14 DAA): 85%
CAPBP Obs (shepherd's purse (CAPBP); 23 DAA): 77%
CAPBP Obs (shepherd's purse (CAPBP); 30 DAA): 72%
CAPBP Obs (shepherd's purse (CAPBP); 57 DAA): 93%
STEME Obs (common chickweed (STEME) [2]; 7 DAA): 99%
STEME Obs (common chickweed (STEME) [2]; 14 DAA): 99%
STEME Obs (common chickweed (STEME) [2]; 23 DAA): 100%
STEME Obs (common chickweed (STEME) [2]; 30 DAA): 100%
STEME Obs (common chickweed (STEME) [2]; 57 DAA): 98%
ERYRE Obs (bushy wallflower (ERYRE); 7 DAA): 98%
ERYRE Obs (bushy wallflower (ERYRE); 14 DAA): 94%
ERYRE Obs (bushy wallflower (ERYRE); 23 DAA): 98%
ERYRE Obs (bushy wallflower (ERYRE); 30 DAA): 100%
ERYRE Obs (bushy wallflower (ERYRE); 57 DAA): 80%
STEME Obs (common chickweed (STEME) [3]; 30 DAA): 96%
STEME Obs (common chickweed (STEME) [3]; 42 DAA): 97%
STEME Obs (common chickweed (STEME) [3]; 46 DAA): 88%
RUMCR Obs (curly dock (RUMCR); 30 DAA): 58%
RUMCR Obs (curly dock (RUMCR); 42 DAA): 58%
RUMCR Obs (curly dock (RUMCR); 46 DAA): 13%
RUMCR Obs (curly dock (RUMCR); 68 DAA): 15%
ERICA Obs (Canada horseweed (ERICA); 7 DAA): 95%
ERICA Obs (Canada horseweed (ERICA); 14 DAA): 96%
ERICA Obs (Canada horseweed (ERICA); 23 DAA): 99%
ERICA Obs (Canada horseweed (ERICA); 30 DAA): 100%
ERICA Obs (Canada horseweed (ERICA); 57 DAA): 81%
LAMPU Obs (red deadnettle (LAMPU) [4]; 30 DAA): 100%
LAMPU Obs (red deadnettle (LAMPU) [4]; 42 DAA): 98%
LAMPU Obs (red deadnettle (LAMPU) [4]; 46 DAA): 100%
CHEAL Obs [5]: 0%
RANAB Obs ([6]; 7 DAA): 98%
RANAB Obs ([6]; 14 DAA): 100%
RANAB Obs ([6]; 23 DAA): 100%
RANAB Obs ([6]; 30 DAA): 100%
TAROF Obs (common dandelion (TAROF); 7 DAA): 79%
TAROF Obs (common dandelion (TAROF); 14 DAA): 69%
TAROF Obs (common dandelion (TAROF); 23 DAA): 61%
TAROF Obs (common dandelion (TAROF); 30 DAA): 33%
TAROF Obs (common dandelion (TAROF); 57 DAA): 0%
SETFA Obs (giant foxtail (SETFA)): 0%
LAMPU Obs (red deadnettle (LAMPU) [7]; 7 DAA): 79%
LAMPU Obs (red deadnettle (LAMPU) [7]; 14 DAA): 80%
LAMPU Obs (red deadnettle (LAMPU) [7]; 23 DAA): 81%
LAMPU Obs (red deadnettle (LAMPU) [7]; 30 DAA): 70%
LACSE Obs (prickly lettuce (LACSE); 7 DAA): 97%
LACSE Obs (prickly lettuce (LACSE); 14 DAA): 95%
LACSE Obs (prickly lettuce (LACSE); 23 DAA): 100%
LACSE Obs (prickly lettuce (LACSE); 30 DAA): 100%
LACSE Obs (prickly lettuce (LACSE); 57 DAA): 100%
AMBTR Obs (giant ragweed (AMBTR); 7 DAA): 100%
AMBTR Obs (giant ragweed (AMBTR); 14 DAA): 100%
AMBTR Obs (giant ragweed (AMBTR); 57 DAA): 70%
LEPVI Obs ([8]; 30 DAA): 100%
LEPVI Obs ([8]; 42 DAA): 96%
LEPVI Obs ([8]; 46 DAA): 100%
ZEAMD Obs (corn (ZEAMD) [9]): 0%
CHEAL Obs [10]: 0%

TRZAW Obs (wheat (TRZAW)): 0
ZEAMD Obs (corn (ZEAMD) [11]): 0
SMILES: O=C1OC(=O)c2cccc3cccc1c23 [Naphthalic anhydride]

SMILES: CCOP(=O)(O)C(N)=O [Fosamine-ammonium, fosamine-ammonium, reference compound]
MXDSP Obs (mixed hardwoods (MXDSP)): 47
QUESS Obs (oak species (QUESS)): 33
